The values below come from ChEMBL document CHEMBL1201862, “PubChem BioAssay data set” (2004).

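Assay format: 96-well plates, 48-hour exposure. GI50: concentration for 50% inhibition of growth.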 Calls of active or inactive are those of the source. Rule as the data show it: active = GI50 up to about 1.1 µM and inactive = higher.

Common to all, as to test: DTP human tumour cell line panel, 48 h
For assay [1], the system named is DLD-1.
Assay [2] concerns DMS-114.
The subject of assay [3] is DMS-273.
Assay [4] concerns KM-20L2.
The subject of assay [5] is LXFL 529.
Assay [6] relates to SNB-78.
The test system of assay [7] is XF498.
For assay [8], the system named is HOP-18.
Assay [9] has as its system RXF 631.

In the case of `CCOC(=O)C(C)NC(=O)NC12CC3CC(CC(F)(C3)C1)C2` (centres undefined), the GI50 was > 100 µM (inactive) in assay [1]; > 100 µM (inactive) in assay [2]; > 100 µM (inactive) in assay [3]; > 100 µM (inactive) in assay [4]; > 100 µM (inactive) in assay [5]; 27.9 µM (inactive) in [6]. In addition, in [7], the GI50 was 27.4 µM (inactive).

Consider `NC(=O)Cn1c(=O)[nH]c(=O)c2[nH]cnc21`, for which the GI50 in assay [2], in [3], in assay [8], in assay [4] and in assay [5] was > 100 µM (inactive) in each case.

In the case of `C=CCc1c(O)c2c(c3oc(=O)cc(C)c13)CC(C)O2` (centres undefined), the GI50 in assay [1] is 48.6 µM (inactive); in [2] it was > 100 µM (inactive); in assay [3] it was > 100 µM (inactive); in assay [8] it was 90.2 µM (inactive); in assay [4], > 100 µM (inactive); in assay [5], > 100 µM (inactive). Further, in assay [6], the GI50 is > 100 µM (inactive).

For `CC(=O)OC1CCC2(C)C3CCC4(C)C(c5ccc(=O)oc5)CC5OC54C3CCC2(O)C1` (centres undefined), the GI50 is 0.521 µM (active) in assay [1]; 0.109 µM (active) in assay [2]; 0.798 µM (active) in assay [3]; 0.461 µM (active) in assay [8]; 2.15 µM (inactive) in assay [4]; 1.14 µM (inactive) in [6]. Also, the GI50 in [7] was 2.92 µM (inactive).

`O=C(N/N=C/c1cc(Br)cc(Br)c1O)c1ccccc1O`: in [4], the GI50 is 2 µM (inactive).

Regarding `O=C(NC1C=Nc2ccc([N+](=O)[O-])cc2NC1=O)c1cc(Cl)cc([N+](=O)[O-])c1` (centres undefined), the GI50 was > 100 µM (inactive) in [1]; 19.7 µM (inactive) in assay [2]; 99.5 µM (inactive) in assay [3]; > 100 µM (inactive) in assay [4]; > 100 µM (inactive) in [5]; > 100 µM (inactive) in [6]. Also, in [7], the GI50 was > 100 µM (inactive).

As to `CC1=C2C(O)C(C(C)C(=O)NC(C)C)CCC2(C)C=CC1=O` (centres undefined), the GI50 in [1], in [2], in assay [3], in assay [8], in [4] and in [6] was > 100 µM (inactive) throughout. The GI50 in assay [7] was > 100 µM (inactive).

Turning to `N#CN=C(NCCO)NCCO`, the GI50 in assay [1] was > 100 µM (inactive); in assay [2], > 100 µM (inactive); in assay [8], 45.1 µM (inactive); in [4], > 100 µM (inactive); in assay [5] it was > 100 µM (inactive); in [9] it was > 100 µM (inactive). The GI50 in [6] and in assay [7] was > 100 µM (inactive) each time.
